Experimental data from patent publication US20250353835A1, “N-TETRAZOLYL ARYL UREA-BASED DERIVATIVES, PREPARATION METHOD THEREFOR, AND USE THEREOF” (Hangzhou Yirui Pharmaceutical Technology Co., Ltd, priority 2022, published 2025).

Columns and labels:
[1] = test system: rat model of diabetic retinopathy; assay: Rat model of diabetic retinopathy (STZ); assay type: in vivo, Wistar rats; conditions: for retinal leukocyte stasis, Leukocyte count: Concanavalin A/FITC, 14 days after intravitreal injection, compounds 0.25%, dexamethasone 0.1%; for number of leukocyte stasis in the retina (fluorescent staining, FIG. 8; in words) / retinal vascular penetration in rats (fluorescent staining, FIG. 6; in words): intraocular injection, versus model group
Description: 3.1 Laboratory animals: SPF-grade male Wistar rats, weighed 180-220 g.
3.3 Animal modeling and grouping: After one week of adaptive feeding, 134 male Wistar rats (weighed 220-260 g) were administered 65 mg/kg of STZ by one-time intraperitoneal injection to prepare a rat model of type I diabetic. The rats were fasting but water was allowable overnight for 15 h. The formulated STZ solution was intraperitoneally injected according to body weight. After 1 h, the diet was resumed and blood glucose was measured at 72 h. The successfully modeled diabetic rats (120 rats) were selected for continued feeding, and randomly divided into the following 6 groups according to blood glucose (20 rats per group), plus a group of normal rats with no STZ injected as a negative control group.
3.4 Administration: The rats continued to be fed until blood glucose was measured once before administration. After blood glucose reached the standard, drugs were intravitreally injected, and indexs were subsequently tested after 14 days. Blood glucose was measured once before sampling.
3.5 Evans blue staining method (7 groups, 6 rats per group): Evans blue was intravenously injected. 2 hours later, normal saline was perfused into the left ventricle. The retina was taken to compare between the stained area and the unstained area to detect retinal vascular permeability.
3.6 Retinal leukocyte stasis detection method (7 groups, 6 rats per group): PBS was perfused into the left ventricle for 1 min to remove red blood cells and other substances. Concanavalin A (FITC (Sigma, C7642) was perfused (20 μg/ml in PBS, 5 mg/kg) to mark adherent leukocytes. 4% PFA was perfused for 4 min for fixation. 1% Albumin (Sigma, A6414) (in PBS) was perfused for 1 min, and then PBS was perfused for 2 min. The retina was taken for retinal wholemount. Thereafter, the stasis of leukocytes on the vascular endothelium was observed under a fluorescence microscope. […]

human B1R = biological target: T1, human B1R (Homo sapiens, UniProt P46663); assay: FLIPR calcium ion flux assay, inhibitory activity against human B1R; assay type: cell-based; conditions: HEK293 cells stably expressing human B1R; agonist [Lys-des-Arg9]-Bradykinin 4.6 nM (EC80); FLIPR method
T1 construct: host or cells: HEK293
T1 sequence (P46663 1-353): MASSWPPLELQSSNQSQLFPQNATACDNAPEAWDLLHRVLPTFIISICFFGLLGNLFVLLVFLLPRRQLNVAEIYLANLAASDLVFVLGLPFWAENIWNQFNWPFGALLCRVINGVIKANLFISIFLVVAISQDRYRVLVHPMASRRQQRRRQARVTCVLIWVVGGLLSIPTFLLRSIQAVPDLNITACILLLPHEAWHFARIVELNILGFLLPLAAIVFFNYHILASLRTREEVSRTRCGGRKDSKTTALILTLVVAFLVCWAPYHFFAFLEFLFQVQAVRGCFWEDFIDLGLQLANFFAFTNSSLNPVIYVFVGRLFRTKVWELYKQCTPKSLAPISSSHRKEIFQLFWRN
In short: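 HEK293 cells stably expressing human B1R, loaded with Fluo-4 Direct plus probenecid; compounds 9-point 1:5 series from 30 μM, duplicate, preincubated 10 min. Stimulation with [Lys-des-Arg9]-bradykinin at 4.6 nM final (EC80); peak fluorescence at 538 nm gave IC50.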

[2] = test system: rat model of acute lung injury; assay: Rat model of LPS-induced acute lung injury; assay type: in vivo, Wistar rats; parameters: IL-6 (serum) / IL-6 (homogenate of lung tissue) / IL-6 (bronchoalveolar lavage fluid) / TNF-α (serum) / TNF-α (homogenate of lung tissue) / TNF-α (bronchoalveolar lavage fluid): unit not given here; conditions: ELISA; test drug 30 mg/kg i.p. 2 h before and 1 h after LPS; 12 h after modeling
Description: 1. Experimental aminals: SPF-grade male Wistar rats, weighed 180-220 g, 6-8 weeks old.
3. Establishment of animal model: The rats were adaptively fed for one week. After the animals were anesthetized, 3 mg/kg LPS (B8) was injected intratracheally to prepare the rat model of acute lung injury.
4. […] At 2 hours before modeling (before tracheal injection of LPS), the test drug (30 mg/kg, the vehicle was 0.3% DMSO in saline) was intraperitoneally injected. At 1 hour after modeling, the test drug was administered once again (at the same dose). At 12 hours after modeling, the animals were sacrificed, and the samples were collected for the tests of various indexes. […]
5.2 ELISA method: 5 rats per group. The serum, alveolar lavage fluid, and tissue homogenate of one lung of each of the rats were subjected to ELISA assay to determine the TNF-α and IL-6 levels.

[3] = test system: mouse model of ragweed pollen-induced allergic conjunctivitis; assay: Mouse model of ragweed pollen-induced allergic conjunctivitis; assay type: in vivo, Balb/c mice
Description: SPF-grade Balb/c mice (half male and half female, 6-8 weeks old) were used as experimental animals. On Day 0 and Day 6, ragweed pollen footpad injection was injected subcutaneously into the footpads of mice for sensitization (65 μl per mouse). On Days 10-14, in the model group, eye drop of ragweed pollen was applied to both eyes of the mice (10 μl per mouse) once a day. The eye drops were applied for 5 consecutive days to trigger local allergic conjunctivitis (Wu B, et al., Frontiers in Immunology, 2021, 12:4754). […] On Day 14, within 30 minutes after the final challenge, the ocular clinical symptoms of the mice were observed under a microscope and scored according to the scoring criteria reported by Magone et al. (MerayoLloves J, et al., J Allergy Clin Immunol (1996) 97(5):1129-40; Magone M T, et al., Clin Immunol Immunopathol (1998) 87(1):75-84), the allergic response of the eyes were observed, including 4 indexes: conjunctival edema, conjunctival congestion, eyelid congestion and edema, and tearing. The scores were recorded as 0-3 points according to the severity (including none, mild, moderate and severe). The left eye of the mouse was taken with the eyelid (keeping the conjunctiva intact), fixed with polyformaldehyde, sectioned in paraffin, Hematoxylin-Eosin stained (HE stained), and toluidine blue stained (for detection of mast cells). Photographs were taken to analyze the inflammatory cell infiltration of the conjunctival tissue, and observe whether the mast cells in the conjunctiva aggregated and whether a phenomenon of degranulation occurred. The expression of allergic indicators IL-4 and IgE in the conjunctival tissue was detected by immunohistochemistry.
The mouse eye, including the eyelids (with intact conjunctiva), was sectioned after deparaffinization, and subjected to antigen retrieval and serum blocking.
Diluted IL-4 or IgE antibodies were added and incubated overnight. After incubation with secondary antibodies, DAB staining was performed, followed by counterstaining with hematoxylin. The slides were then mounted and observed under an […], with photographs taken. Semi-quantitative analysis was conducted using Image-J software. Based on the cumulative optical density and regional area values of each image, the average optical density was calculated to detect the positive expression of IL-4 or IgE.

[4] = Drug concentration in rat retinas after intraocular injection (HPLC); assay type: in vivo, Wistar rats; conditions: male, Wistar, rat, retina, other: intraocular injection, 5 μL of 0.5% solution per eye; Day 7 after intraocular injection of 0.5% (5 μL per eye); read-out: retinal drug concentration
Text: 1.1 Experimental aminals: SPF-grade male Wistar rats weighed 180-220 g.
1.2 Drugs and reagents: Compound 71; sodium chloride injection (Shandong Qidu Pharmaceutical Co., Ltd., Batch No.: 3B151014124); acetonitrile (chromatographically pure, TEDIA, USA); methanol (chromatographically pure, SIGMA-ALDRICH product); triethylamine (analytically pure, Hangzhou Gaojing Fine Chemical Co., Ltd.).
1.3 Experimental grouping and administration: according to the sampling time, 33 male Wistar rats were divided into 11 groups (three rats per group) of: (1) control group; (2) 0 h; (3) 2 h; (4) 6 h; (5) 24 h; (6) 48 h; (7) 72 h; (8) 5 d; (9) 7 d; (10) 10 d; (11) 14 d. Three rats in the control group were injected with solvent (sterile normal saline) intraocularly, and the remaining 30 rats were injected with Compound 71 intraocularly at a concentration of 0.5% by using a 5 μL microinjector, and 5 μL of drug was injected per bulbus oculi.
1.4 Sampling and detection index: The retina of the rat in the control group was taken on Day 14 (14 d), and the retina of the remaining 30 rats was taken at the corresponding time points. The retina were frozen in liquid nitrogen, and then subjected to the subsequent HPLC detection.
1.5.1 Chromatographic conditions: The mobile phase was chromatographic grade acetonitrile-water=25-75 (v/v). The flow rate was 0.5 mL/min. The column temperature was 25° C. The UV detection wavelength was 254 nm. The injection volume was 20 μL.
1.5.2 Sample processing and preparation: the sample of the rat retina was taken out from the ultra-low temperature (−80° C.) refrigerator, accurately weighed and placed in a glass homogenizer, and ethyl acetate as an organic solvent pre-cooled in a 4° C. refrigerator was added at a ratio of 100 mL/g. The homogenizer was placed in an ice bath for homogenization. After homogenization, all the homogenate was poured into a 5 mL stoppered centrifuge tube. The centrifugation was performed at a low temperature of 4° C. for 5 min (5000 r/min). All the organic phase as the upper layer was accurately taken out and placed in a glass tube with conical bottom. The remaining residue of retina was extracted with 2 mL ethyl acetate repeatedly once. After centrifugation, the two organic phases were combined. Then, the centrifuge tube with conical bottom was blowed for dryness in a nitrogen flow in a 45° C. water bath. The residue was redissolved with 0.1 mL of chromatographic methanol, vortex mixed for 1 min, and centrifuged for 5 min at a high speed of 18000 r/min. 20 μL of the supernatant was taken, and analyzed in a high-performance liquid chromatography system.
1.5.3 Sample determination: After intraocular injection of 5 μL of 0.5% Compound 71, the retina was taken at different time points to analyze the drug content of the test compound in the retina.
1.5.4 Experimental results and conclusions: According to the retinal drug concentration-time curve, it is in conformity to the non-absorption two-compartment model. According to the pharmacokinetic non-absorption two-compartment model theory, the pharmacokinetic parameters of the drug were calculated.

[5] = immunohistochemistry, dexamethasone 0.1% eye drop

IC50 (human B1R) [nM]	concentration at 7 d [4] [nM]	SMILES	retinal leukocyte stasis, Leukocyte count [1]	number of leukocyte stasis in the retina (fluorescent staining, FIG. 8; in words) [1]	retinal vascular penetration in rats (fluorescent staining, FIG. 6; in words) [1]	IL-6 (bronchoalveolar lavage fluid) [2]	IL-6 (homogenate of lung tissue) [2]	IL-6 (serum) [2]	TNF-α (bronchoalveolar lavage fluid) [2]	TNF-α (homogenate of lung tissue) [2]	TNF-α (serum) [2]	Clinical symptom score ([3]; 0.1% dexamethasone eye drop, twice a day for 14 days, Day 14 within 30 minutes after final challenge)	expression of IL-4 in ocular tissue (average optical density) [3, 5]	expression of IgE in ocular tissue (average optical density) [3, 5]
43.5		COc1ccc(-c2ccc(NC(=O)N(C)[C@H]3CC[C@H](C(C)(C)C)CC3)cc2-c2nn[nH]n2)cc1OC [Compound 65, 1-((trans)-4-(tert-butyl)cyclohexyl)-3-(3′,4′-dimethoxy-2-(2H-tetrazol-5-yl)-[1,1′-biphenyl]-4-yl)-1-methylurea]	5.14 ± 1.20	significantly reduced	significantly reduced									
		C[C@@H]1C[C@H]2[C@@H]3CCC4=CC(=O)C=C[C@]4(C)[C@@]3(F)[C@@H](O)C[C@]2(C)[C@@]1(O)C(=O)CO [Dexamethasone, dexamethasone, reference compound]	4.17 ± 3.21			115.59 ± 67.57	150.17 ± 100.46	255.58 ± 109.87	13.62 ± 7.33	19.17 ± 7.55	57.26 ± 19.27	4.75 ± 0.51	0.23±0.09	0.53±0.11
14.6		COc1ccc(-c2c(F)cc(NC(=O)N3CCC(C(C)(C)C)CC3)cc2-c2nn[nH]n2)cc1OC [Compound 11, 4-(tert-butyl)-N-(2-fluoro-3′,4′-dimethoxy-6-(2H-tetrazol-5-yl)-[1,1′-biphenyl]-4-yl)piperidine-1-carboxamide]	7.20 ± 8.44	significantly reduced	significantly reduced									
148	1540	COc1ccc(-c2ccc(NC(=O)N3CCC(C(F)(F)F)CC3)cc2-c2nn[nH]n2)cc1OC [Compound 2, N-(3′,4′-dimethoxy-2-(2H-tetrazol-5-yl)-[1,1′-biphenyl]-4-yl)-4-(trifluoromethyl)piperidine-1-carboxamide]												
